Assays:
[1] = biological target: mitochondrial complex I in UACC-62-R cells; assay: Seahorse XF96 bioenergetics (OCR, complex I-mediated respiration, glycolysis); format: cell-based, human
Procedure: (§1) Melanoma cells harboring BRAF oncogenic mutations use aerobic glycolysis (the Warburg effect) to meet their energy demands. […] One reason for the acquired resistance to PLX4720 is the adaptive change from glycolysis to OXPHOS.
(§2) We used a Seahorse XF96 Analyzer to measure OCR, a readout of mitochondrial respiration, and […], a surrogate marker for glycolysis, in real time. OCR is measured after adding substrates and inhibitors of complexes I-IV. In preliminary studies, Mito-MGN inhibited complex I activity in both WT and resistant cells (FIG. 21F).

[2] = tested on: mitochondrial complex I in UACC-62-WT cells; assay: as above; format: cell-based, human
Procedure: as §1, §2

B16.F10 cells = assay: B16.F10 orthotopic melanoma model; format: in vivo, mice
Procedure: (A) Kaplan-Maier survival curves of B16-F10 engrafted mice treated on days 7, 9, 11, 14, 16, & 18 with Mito-MGN [1 mg] or with α-PD-L1 [250 μg]. (B) Tumor size (mm2) over time. (C) Tumor volume measured on day 19. Values are mean±SD, n=4 mice/group. ***, P≤0.001.
T cells were detected using CD3 immunostaining (brown). Arrowheads highlight CD3+ T cells in melanoma (blue cells). Data representative of 4 separate mice.

[3] = Serum toxicity markers (pilot study); conditions: three weekly treatment at 5 mg/kg
[4] = tested on: mitochondrial Prx3 in WT melanoma cells; assay: Peroxiredoxin redox status (Western blot); format: cell-based, human; conditions: cytosolic Prx1 largely unaffected
Text: (§3) (A) Western blot show the redox status of cytosolic (Prx1) and mitochondrial (Prx3) peroxiredoxins. (B) Quantitative analysis of the extent of Prx1 and Prx3 oxidation. Values are mean±SD, n=3. **, P≤0.01. (C) Scheme showing the pathways controlling the redox state and covalent dimer formation of peroxiredoxins in cells.
(§4) Peroxiredoxins (Prx) are abundant endogenous intracellular thiol peroxidases that act as compartment-specific sensors of hydrogen peroxide (H2O2) in mitochondrial (Prx3) and cytosolic (Prx1) compartments (62-64). Prxs rapidly react with H2O2 (k=10^6-10^7 M^−1 s^−1) (64, 65). Prx3 accounts for nearly 90% of mitochondrial peroxidase activity (64, 66).

[5] = tested on: mitochondrial Prx3 in resistant melanoma cells; assay: Peroxiredoxin redox status (Western blot); format: cell-based, human; conditions: cytosolic Prx1 largely unaffected
Text: as §3, §4

UACC-62-WT cells [6] = assay: Melanoma cell proliferation monitored in real time; format: cell-based, human
Procedure: (§5) UACC-62-WT cells (A) or UACC-62-R cells (B) were treated with PLX4720 as indicated. Cell proliferation was monitored in real time with the continuous presence of indicated treatments until the end of each experiment. (C) Representative images shown are the segmentation of phase contrast images (segmentation mask illustrated in black). (D) The cell confluence (as control groups reach 95% confluency) is plotted against concentration of PLX4720 inhibitor. Dashed lines represent the fitting curves used to determine the IC50 values. […] (F) The effect of Mito-MGN (0.2 μM) on mitochondrial complex I and II activities (oxygen consumption rate, OCR) is shown for wild-type (red) and resistant UACC-62 (blue) melanoma cells.
(§6) UACC-62-WT cells (A) or UACC-62-R cells (B) were treated with Mito-MGN as indicated. Cell proliferation was monitored in real time with the continuous presence of indicated treatments until the end of each experiment. (C) Representative images shown are the segmentation of phase contrast images (segmentation mask illustrated in black). (D) The cell confluence (as control groups reach 95% confluency) is plotted against Mito-MGN concentration. Dashed lines represent the fitting curves used to determine the IC50 values.
(§7) To establish PLX4720-resistant melanoma cell line, UACC-62 cells (ATCC) were continuously exposed to increasing concentrations of PLX4720 (1-20 μM) for six months until the logarithmic growth resumed. PLX4720-containing media were replaced twice a week. Resistant cell line (UACC-62R) was maintained in routine culture in the presence of 20 μM PLX4720. FIGS. 21A and 21B show the effect of PLX4720 on proliferation of UACC-62-WT and UACC-62-R cells.
(§8) FIGS. 22A and 22B show the effect of Mito-magnolol on proliferation of UACC-62-WT and UACC-62-R cells. Cell proliferation was monitored in real time for cells incubated continuously under treatment conditions as shown.

UACC-62-R cells [7] = assay: Melanoma cell proliferation monitored in real time; format: cell-based, human; conditions: 0.1-0.3 μM, six days
Procedure: as §5, §6, §7, §8

[8] = tested on: human MiaPaCa-2 pancreatic cancer cells; assay: Antiproliferative effect on pancreatic cancer cells; format: cell-based
Text: FIG. 3. Comparison of anti-proliferative effects of honokiol (HNK), mito-honokiol (Mito-HNK) and bis-mito-honokiol (Mito-bis-HNK) on human MiaPaCa-2 pancreatic cancer cells.
FIG. 15A-15F. Effects of mito-honokiol alone or in combination with 2-deoxyglucose on pancreatic cells. […] Further, the combining the mito-honokiols of the present invention with antiglycolytic agents (e.g. 2-deoxyglucose) reduced the rate of proliferation of pancreatic cancer cells than either treatment alone, as shown for a number of different concentrations in FIG. 15C-F.
The inventors also compared the antiproliferative activity of mito-honokiol analogs to honokiol using human MiaPaCa-2 pancreatic cancer cells (FIG. 3).

UACC-62-WT cells [9] = assay: UACC-62-WT orthotopic melanoma xenograft; format: in vivo, mice; conditions: 1 mg injected intratumorally in 50 μL
Procedure: (A) Representative μCT images on day 58 from UACC-62-WT xenographed (T=tumor) mice treated twice a week with vehicle (left) or 1 mg Mito-MGN (right). Data representative of 2 mice per group. (B) Quantification of tumor volume (mm^3) measured using calipers ex vivo on day 58.
The efficacy of Mito-MGN in a murine model of melanoma was tested using cells sensitive and resistant to BRAF inhibitors as tools to probe the anti-tumor effects of targeted OXPHOS inhibitors.

UACC-62 cells = assay: TMRE flow cytometry, mitochondrial depolarization; format: cell-based, human; conditions: pilot experiments
Text: (A) Representative TMRE quantification using flow cytometry. (B) Mean fluorescence intensity (MFI) of TMRE in Mito-MGN-treated and vehicle (V)-treated UACC-62-WT cells. Values are mean±SEM, n=3
Not to be bound by any theory, but it is believed that Mito-MGN-induced ROS halts melanoma proliferation through induction of mitophagy. ROS at high μM concentrations have detrimental effects on lipids, proteins, and DNA, whereas at nM concentrations, ROS exerts potent signaling effects (11, 41, 65). We postulate that OXPHOS inhibition by Mito-MGN increases ROS levels, which in turn stimulates mitophagy. To test this hypothesis, we will use an iterative approach to first measure mitochondrial membrane damage, followed by the parallel examination of molecular markers and phagolysome activation needed for mitophagy. Tetramethylrhodamine ethyl ester (TMRE) is retained in metabolically active mitochondria and released into the cytosol and extracellular space of cells with depolarized/damaged mitochondria (67), as illustrated in our recent paper using related mitochondria-targeted agents (12).

UACC-62-WT cells [10] = assay: Hydroethidine oxidation products by HPLC; format: cell-based, human; conditions: 24 h preincubation
Procedure: (§9) Mito-magnolol stimulates ROS and causes oxidation of mitochondrial antioxidative enzyme in BRAFV600E inhibitor-resistant melanoma cells. UACC-62-WT and UACC-62-R cells were preincubated with Mito-magnolol for 24 h and then treated with hydroethidine. Cell lysates were analyzed by HPLC and the superoxide-specific hydroxylation product (2-OH-E^+) and other two-electron and one-electron oxidation products (E^+ and E^+-E^+) were determined.
(§10) Hydroethidine (HE) was used to measure intracellular O2^⋅− formation. 2-Hydroxyethidium (2-OH-E^+), the diagnostic marker product of O2^⋅−/HE reaction (FIG. 23A) increased in Mito-MGN treated melanoma cells (FIG. 23B). In addition, Mito-MGN induced the iron or peroxidase-dependent oxidation of HE as evidenced by enhanced intracellular formation of E^+-E^+ and E^+ (FIG. 23B).

UACC-62-R cells [11] = assay: Hydroethidine oxidation products by HPLC; format: cell-based, human; conditions: 24 h preincubation
Procedure: as §9, §10

[12] = tested on: H2030-BrM3 and DMS-273 orthotopic lung tumors; assay: Orthotopic lung cancer model; format: in vivo, mice
Procedure: DM273 cells (1×10^6 cells/50 μg of growth factor reduced Matrigel in 50 μL of RPMI-1640 medium) were injected into the left lung. One week after injection, mice were treated with the same dose of HNK or Mito-HNK (7.5 μmol/kg) or vehicle (corn oil) by oral gavage five times per week for three weeks). […] Five-week-old male athymic nude mice were used for experiments. Mice were anesthetized with isoflurane and placed in the right lateral decubitus position. A total of 1×10^6 H2030-BrM3 cells in 50 μg of growth factor reduced Matrigel (BD Biosciences, San Jose, CA) in 50 μL of RPMI-1640 medium were injected through the left rib cages of mice into their left lungs, as previously described (Nguyen et al., 2009). […] Tumor growth and metastases phenotypes were monitored during this time by bioluminescence with an Xenogen IVIS-200. Mice were sacrificed at the endpoint; tissues were extracted, freshly frozen, and OCT-fixed or formalin-fixed with 10% zinc for later western blot and immunohistochemistry (IHC) analyses.

STAT3 phosphorylation = assay: PathScan RTK signaling array; format: cell-based; conditions: DMS-273 cells; HNK 10 μM and 20 μM, Mito-HNK 0.2 μM, six hours
Procedure: H2030-BrM3 and DMS-273 cells treated with control DMSO and various doses of HNK and Mito-HNK for four hours were lysed with 200 μl lysis buffer containing proteinase inhibitor cocktails (Cell Signaling Technology, Danvers, MA), sheared 10 times with a 28-gauge needle, spun at 16,000×g for 30 min, and normalized by protein concentration as determined by the Bradford method. Normalized lysate was resolved in a PathScan RTK Signaling Array, and the signaling array was examined by a Li-COR Odyssey infrared imaging system (Li-COR Biosciences-Biotechnology, Lincoln, NE).
For the RTK signaling array, we treated DMS-273 cells with two different doses of HNK (10 μM and 20 μM) and Mito-HNK (0.2 μM) for six hours.

H2030-BrM3 cells = assay: Cell proliferation assay (IncuCyte); format: cell-based; conditions: Homo sapiens
Procedure: (§11) For the cell proliferation assay, cells were seeded onto 96-well tissue culture plates at 2-3,000 cells per well. Twenty-four hours after seeding, treatment group cells were exposed to various concentrations of HNK for 48 hours, and control group cells received fresh medium. The plate was incubated at 37° C. and 5% CO2 and monitored in IncuCyte (Essen Bioscience, Ann Arbor, MI). Data analysis was conducted using IncuCyte […] software. All assays were performed in triplicate. Next, we examined the anticancer effects of Mito-HNK compared to HNK in vitro. Various doses of HNK and Mito-HNK were treated in either H2030-BrM3 or DMS-273 cells, and the antiproliferative effects were monitored with an IncuCyte Live-Cell Imaging Analyzer. […] Furthermore, we examined the anti-invasive effects of Mito-HNK in H2030-BrM3 and DMS-273 cells via a Boyden chamber invasion assay. Both cells were treated with vehicle control (DMSO), HNK (20 μM), and Mito-HNK (0.2 μM) for 36 hours, and invaded cells were determined.

DMS-273 cells = assay: Cell proliferation assay (IncuCyte); format: cell-based; conditions: Homo sapiens
Procedure: as §11

MiaPaCa-2 cells = assay: Intracellular ATP, combination with 2-deoxyglucose; format: cell-based, human; conditions: combined with 2-deoxyglucose (2-DG)
Text: FIG. 4. Synergistic depletion of intracellular ATP in MiaPaCa-2 cells by combination of 2-deoxyglucose (2-DG) and honokiol (HNK) and mito-honokiol (Mito-HNK). The data were obtained on the human pancreatic cancer MiaPaCa-2 cell line. […] In one embodiment, the mito-honokiols of the present invention may be also used in combination with standard-of-care chemotherapeutics or with ionizing radiation to treat resistant cancer cells.

[13] = 1 mg/tumor Mito-MGN or 250 μg anti-PD-L1 antibody

Compound: C=CCc1ccc(O)c(-c2cc(CC=C)ccc2OC[P+](c2ccccc2)(c2ccccc2)c2ccccc2)c1.[Br-] [Mito-MGN]
- IC50 ([1]; read-out: IC50 to inhibit complex I-mediated respiration, 1 h treatment, UACC-62-R): 0.66 µM
- OXPHOS (OCR) ([1]; resistant cells): significantly inhibiting OXPHOS
- glycolysis (SCAR/PPR) ([1]; resistant cells): minimally affected glycolysis
- OXPHOS (OCR) ([2]; WT cells): significantly inhibiting OXPHOS
- glycolysis (SCAR/PPR) ([2]; WT cells): minimally affected glycolysis
- IC50 ([2]; read-out: IC50 to inhibit complex I-mediated respiration, 1 h treatment, UACC-62-WT): 0.35 µM
- melanoma growth in vivo (B16.F10 cells; [13]): decreased melanoma growth
- survival (B16.F10 cells; [13]): increased survival
- T cell levels in excised tumors (CD3 immunostaining) (B16.F10 cells; compared to vehicle control tumors): increased T cell levels
- efficiency in abrogating tumor progression and size (B16.F10 cells; compared with anti-PD-L1): equal to anti-PD-L1
- BUN ([3]; serum, day 19, Mean ± SE, n = 4-5, ref (12-28)): 24.5 ± 1.9 mg/dL
- ALT ([3]; serum, day 19, Mean ± SE, n = 4-5, ref (22-77)): 58.7 ± 12.7 IU/L
- AP ([3]; serum, day 19, Mean ± SE, n = 4-5, ref (45-222)): 36.7 ± 10.8 IU/L
- liver or kidney toxicity [3]: little liver or kidney toxicity
- oxidation of mitochondrial Prx3 [4]: stimulated the oxidation of mitochondrial Prx3
- oxidation of mitochondrial Prx3 [5]: stimulated the oxidation of mitochondrial Prx3
- sensitivity of proliferation (UACC-62-WT cells [6]; 0.1-0.3 μM, six days): exquisitely sensitive
- sensitivity of proliferation (UACC-62-R cells [7]): exquisitely sensitive
- antiproliferative effects ([8]; 1 μM, FIG. 15B): exhibit antiproliferative effects
- tumor size (μCT in vivo and ex vivo excised tumors) (UACC-62-WT cells [9]): potently reduced tumor size
- mitochondrial membrane potential (TMRE) (UACC-62 cells): dose dependently decreases mitochondrial membrane potential
- HE oxidation products 2-OH-E+, E+ and E+-E+ (UACC-62-WT cells [10]): significantly higher amount
- HE oxidation products 2-OH-E+, E+ and E+-E+ (UACC-62-R cells [11]): significantly higher amount

Compound: C=CCc1ccc(O)c(-c2ccc(O)c(CC=C)c2)c1 [HNK, honokiol]
- tumor growth ([12]; 7.5 μmol/kg oral gavage five times per week for three weeks): did not significantly reduce tumor growth
- observable side effects ([12]; H2030-BrM3 and DMS-273 orthotopic models): did not show any observable side effects
- STAT3 phosphorylation levels (STAT3 phosphorylation): dramatically decreased
- IC50 (H2030-BrM3 cells): 27 µM
- IC50 (DMS-273 cells): 30 µM
- cellular ATP levels (MiaPaCa-2 cells): synergize with 2-deoxyglucose (2-DG) in decreasing cellular ATP levels

Compound: C=CCc1ccc(OCCCCCCCCCC[P+](c2ccccc2)(c2ccccc2)c2ccccc2)c(-c2ccc(OCCCCCCCCCC[P+](c3ccccc3)(c3ccccc3)c3ccccc3)c(CC=C)c2)c1 [Bis-Mito-HNK]
- antiproliferative potency compared with honokiol ([8]; MiaPaCa-2): more potent than honokiol

Compound: CCCS(=O)(=O)Nc1ccc(F)c(C(=O)c2c[nH]c3ncc(Cl)cc23)c1F [PLX4720, reference compound]
- cells after six days of treatment (phase contrast images) (UACC-62-WT cells [6]; 10 μM, WT versus resistant cells): considerably fewer WT cells compared to resistant cells
